# Experimental data: patent US11458123B2 (Arvinas, Inc., priority 2016, dated 2022)
# System: tau protein
# Assay: Tau protein in vitro degradation assay (Western blot, Tau-13 antibody)
# Format: cell-based, human
# Conditions: SK-N-SH cells, 72 hours of incubation; for Degradation activity* (highest amount of degradation observed at any dosage; tau protein remaining) / Degradation activity (tau protein remaining; highest amount of degradation observed at any dosage): tested at 300 nM, 100 nM, 33 nM and 11 nM, Western blot, Tau-13 antibody; for Activity* (highest amount of degradation observed at any dosage, as tau protein remaining): tested at 1000 nM, 300 nM and 100 nM
# Summary of the method: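 Tau degradation read by Tau-13 Western blot (detects all human tau forms) of SDS-PAGE-resolved lysates from SK-N-SH cells. Cells were plated at least 18 h before 72 h exposure to PROTACs at either 1000/300/100 nM or 300/100/33/11 nM.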
Compound,Degradation activity* (highest amount of degradation observed at any dosage; tau protein remaining),other results
"Cn1c2ccncc2c2ccc(-c3ccc(O[C@H]4C[C@H](Oc5ccc(C#CCCCCOc6ccc7c(c6)C(=O)N(C6CCC(=O)NC6=O)C7=O)nc5)C4)nc3)cc21 (some centres unmarked) [Compound 97, 2-(2,6-dioxopiperidin-3-yl)-5-((6-(5-((1r,3r)-3-((5-(5-methyl-5H-pyrido[4,3-b]indol-7-yl)pyridin-2-yl)oxy)cyclobutoxy)pyridin-2-yl)hex-5-yn-1-yl)oxy)isoindoline-1,3-dione]",B (≤80% and >50% tau protein remaining after 72 hours of incubation with the test compound),–
"O=C1CCC(N2C(=O)c3ccc(OCC#Cc4ccc(O[C@H]5C[C@H](Oc6ccc(-c7cc8[nH]c9ccncc9c8c(F)c7F)cn6)C5)cn4)cc3C2=O)C(=O)N1 (some centres unmarked) [Compound 204, 5-((3-(5-((1r,3r)-3-((5-(8,9-difluoro-5H-pyrido[4,3-b]indol-7-yl)pyridin-2-yl)oxy)cyclobutoxy)pyridin-2-yl)prop-2-yn-1-yl)oxy)-2-(2,6-dioxopiperidin-3-yl)isoindoline-1,3-dione]",–,Degradation activity (tau protein remaining; highest amount of degradation observed at any dosage): C (>80% tau protein remaining after 72 hours of incubation with the test compound)
"O=C1CCC(N2C(=O)c3ccc(OCC#Cc4ccc(O[C@H]5C[C@H](Oc6ccc(-c7ccc8c(c7)[nH]c7ccncc78)cn6)C5)cn4)cc3C2=O)C(=O)N1 (some centres unmarked) [Compound 73, 5-((3-(5-((1r,3r)-3-((5-(5H-pyrido[4,3-b]indol-7-yl)pyridin-2-yl)oxy)cyclobutoxy)pyridin-2-yl)prop-2-yn-1-yl)oxy)-2-(2,6-dioxopiperidin-3-yl)isoindoline-1,3-dione]",A (≤50% tau protein remaining after 72 hours of incubation with the test compound),–
"Cn1c2ccncc2c2ccc(-c3ccc(O[C@H]4C[C@H](N(C)C5CC6(C5)CN(CCCCCOc5ccc7c(c5)C(=O)N(C5CCC(=O)NC5=O)C7=O)C6)C4)nc3)cc21 (some centres unmarked) [Compound 126, 2-(2,6-dioxopiperidin-3-yl)-5-((5-(6-(methyl((1r,3r)-3-((5-(5-methyl-5H-pyrido[4,3-b]indol-7-yl)pyridin-2-yl)oxy)cyclobutyl)amino)-2-azaspiro[3.3]heptan-2-yl)pentyl)oxy)isoindoline-1,3-dione]",B (≤80% and >50% tau protein remaining after 72 hours of incubation with the test compound),–
"O=C1CCC(N2Cc3c(OCCOCCOCCOCCOCCOc4ccc(-c5ccc6c(c5)[nH]c5ccncc56)cn4)cccc3C2=O)C(=O)N1 (centres unmarked) [Compound 50, 3-(4-(14-(5-(5H-pyrido[4,3-b]indol-7-yl)pyridin-2-yloxy)-3,6,9,12-tetraoxatetradecyloxy)-1-oxoisoindolin-2-yl)piperidine-2,6-dione]",–,"Activity* (highest amount of degradation observed at any dosage, as tau protein remaining): A (≤50% tau protein remaining after 72 hours of incubation with the test compound)"
"Cn1c2ccncc2c2ccc(-c3ccc(O[C@H]4C[C@H](OCCCC(F)(F)CN5CC6(C5)CN(c5ccc7c(c5)C(=O)N(C5CCC(=O)NC5=O)C7=O)C6)C4)nc3)cc21 (some centres unmarked) [Compound 150, 5-(6-(2,2-difluoro-5-((1r,3r)-3-((5-(5-methyl-5H-pyrido[4,3-b]indol-7-yl)pyridin-2-yl)oxy)cyclobutoxy)pentyl)-2,6-diazaspiro[3.3]heptan-2-yl)-2-(2,6-dioxopiperidin-3-yl)isoindoline-1,3-dione]",B (≤80% and >50% tau protein remaining after 72 hours of incubation with the test compound),–
"Cc1ncsc1-c1ccc(CNC(=O)[C@@H]2C[C@@H](O)CN2C(=O)[C@H](C(C)C)N2Cc3ccccc3C2=O)c(OCCOCCOc2ccc(-c3ccc4c(c3)[nH]c3ccncc34)cn2)c1 [Compound 186, (2S,4R)—N-(2-(2-(2-((5-(5H-pyrido[4,3-b]indol-7-yl)pyridin-2-yl)oxy)ethoxy)ethoxy)-4-(4-methylthiazol-5-yl)benzyl)-4-hydroxy-1-((S)-3-methyl-2-(1-oxoisoindolin-2-yl)butanoyl)pyrrolidine-2-carboxamide]",–,Degradation activity (tau protein remaining; highest amount of degradation observed at any dosage): B (≤80% and >50% tau protein remaining after 72 hours of incubation with the test compound)
"O=C1CCC(N2Cc3c(NCCOCCOCCOCCOCCOc4ccc(-c5ccc6c(c5)[nH]c5ccncc56)cn4)cccc3C2=O)C(=O)N1 (centres unmarked) [Compound 49, 3-(4-((14-((5-(5H-pyrido[4,3-b]indol-7-yl)pyridin-2-yl)oxy)-3,6,9,12-tetraoxatetradecyl)amino)-1-oxoisoindolin-2-yl)piperidine-2,6-dione]",–,"Activity* (highest amount of degradation observed at any dosage, as tau protein remaining): A (≤50% tau protein remaining after 72 hours of incubation with the test compound)"
"O=C1CCC(N2C(=O)c3ccc(OCCOCCOCCOCCOCCOc4ccc(-c5ccc6c7cnccc7n(C(F)F)c6c5)cn4)cc3C2=O)C(=O)N1 (centres unmarked) [Compound 138, 5-((14-((5-(5-(difluoromethyl)-5H-pyrido[4,3-b]indol-7-yl)pyridin-2-yl)oxy)-3,6,9,12-tetraoxatetradecyl)oxy)-2-(2,6-dioxopiperidin-3-yl)isoindoline-1,3-dione]",B (≤80% and >50% tau protein remaining after 72 hours of incubation with the test compound),–
"Cn1c2cc(-c3ccc(OCCOCCOCCOCCOCCOc4ccc5c(c4)C(=O)N(C4CCC(=O)NC4=O)C5=O)nc3)ccc2c2cncc(Cl)c21 (centres unmarked) [Compound 195, 5-((14-((5-(4-chloro-5-methyl-5H-pyrido[4,3-b]indol-7-yl)pyridin-2-yl)oxy)-3,6,9,12-tetraoxatetradecyl)oxy)-2-(2,6-dioxopiperidin-3-yl)isoindoline-1,3-dione]",–,Degradation activity (tau protein remaining; highest amount of degradation observed at any dosage): A (≤50% tau protein remaining after 72 hours of incubation with the test compound)
"O=C1CCC(N2C(=O)c3ccc(OCCCCCOC4CCN(C(=O)[C@H]5C[C@@H](Oc6ccc(-c7ccc8c(c7)[nH]c7ccncc78)cn6)C5)CC4)cc3C2=O)C(=O)N1 (some centres unmarked) [Compound 166, 5-((5-((1-((1r,3r)-3-((5-(5H-pyrido[4,3-b]indol-7-yl)pyridin-2-yl)oxy)cyclobutane-1-carbonyl)piperidin-4-yl)oxy)pentyl)oxy)-2-(2,6-dioxopiperidin-3-yl)isoindoline-1,3-dione]",C (>80% tau protein remaining after 72 hours of incubation with the test compound),–
